Reference: US7642244B2, “Neuropeptide-2 receptor (Y-2R) agonists and uses thereof” (Hoffmann-La Roche Inc., priority 2005, dated 2010)
pEC50: −log10 of the molar value. Where two headings read alike, the source gives them in different places.

What was measured:
[1] = tested on: hypothalamic slices; details: hypothalamic slices in vitro; cited from earlier work
[2] = target: T1, Y1R (Homo sapiens, UniProt P25929); assay: Calcium flux assay (FLIPR), Y1R; type: cell-based
T1 sequence (P25929 1-384): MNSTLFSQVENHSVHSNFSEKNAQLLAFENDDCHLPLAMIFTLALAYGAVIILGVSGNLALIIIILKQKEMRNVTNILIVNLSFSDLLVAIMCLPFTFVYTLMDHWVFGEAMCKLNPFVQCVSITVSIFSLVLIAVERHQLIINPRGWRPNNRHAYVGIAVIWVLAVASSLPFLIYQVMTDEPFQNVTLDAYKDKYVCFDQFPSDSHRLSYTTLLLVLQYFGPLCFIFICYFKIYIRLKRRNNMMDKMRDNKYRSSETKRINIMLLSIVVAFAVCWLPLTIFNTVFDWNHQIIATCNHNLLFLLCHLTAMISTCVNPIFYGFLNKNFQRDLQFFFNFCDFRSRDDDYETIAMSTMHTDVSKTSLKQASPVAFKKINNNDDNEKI
Procedure: (§1) During the incubation, test compounds were prepared at 3.5× the desired concentration in HBSS (20 mM HEPES)/0.05% BSA/1% DMSO and transferred to a 384-well plate for use on FLIPR® (FILPR, Fluorescent Imaging Plate Reader, is a registered trademark of Molecular Devices Corp.).
(§2) After incubation, both the cell and compound plates were brought to the FLIPR® and 20 μL of the diluted compounds were transferred to the cell plates by the FLIPR®. During the assay, fluorescence readings were taken simultaneously from all 384 wells of the cell plate every 1.5 seconds. Five readings were taken to establish a stable baseline, and then 20 μl of sample was rapidly (30 μl/sec) and simultaneously added to each well of the cell plate. The fluorescence was continuously monitored before, during and after sample addition for a total elapsed time of 100 seconds. Responses (increase in peak fluorescence) in each well following addition was determined. The initial fluorescence reading from each well, prior to ligand stimulation, was used as a zero baseline value for the data from that well. The responses were expressed as a percentage of maximal response of the positive control.

[3] = target: Y4R (Homo sapiens, UniProt P50391); assay: Calcium flux assay (FLIPR), Y4R; type: cell-based
Chain of Y4R (P50391 whole entry): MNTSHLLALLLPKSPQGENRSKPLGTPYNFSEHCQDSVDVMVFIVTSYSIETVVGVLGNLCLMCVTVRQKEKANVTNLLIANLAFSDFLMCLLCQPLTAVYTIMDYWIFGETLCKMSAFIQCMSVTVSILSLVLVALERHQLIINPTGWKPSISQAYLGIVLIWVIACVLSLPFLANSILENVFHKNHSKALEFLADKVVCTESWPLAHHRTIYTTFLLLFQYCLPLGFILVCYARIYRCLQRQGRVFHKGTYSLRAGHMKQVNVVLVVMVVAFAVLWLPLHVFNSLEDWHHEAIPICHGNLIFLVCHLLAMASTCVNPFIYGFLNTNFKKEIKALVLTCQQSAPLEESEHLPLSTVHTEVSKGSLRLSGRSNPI
Procedure: as §1, §2

[4] = target: T2, Y5R (Homo sapiens, UniProt Q15761); assay: Calcium flux assay (FLIPR), Y5R; type: cell-based
T2 sequence (Q15761 1-445): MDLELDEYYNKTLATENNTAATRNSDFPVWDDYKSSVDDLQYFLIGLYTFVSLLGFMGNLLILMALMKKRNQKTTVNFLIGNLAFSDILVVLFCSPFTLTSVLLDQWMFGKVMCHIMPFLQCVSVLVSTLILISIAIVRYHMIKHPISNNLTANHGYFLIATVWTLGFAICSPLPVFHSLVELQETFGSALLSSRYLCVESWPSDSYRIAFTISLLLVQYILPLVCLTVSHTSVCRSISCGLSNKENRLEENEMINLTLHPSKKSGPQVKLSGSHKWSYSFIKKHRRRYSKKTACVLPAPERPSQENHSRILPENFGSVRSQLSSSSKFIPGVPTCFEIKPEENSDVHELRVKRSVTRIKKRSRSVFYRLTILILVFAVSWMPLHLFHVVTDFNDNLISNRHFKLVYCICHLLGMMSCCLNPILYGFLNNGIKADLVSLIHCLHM
Procedure: as §1, §2

[5] = tested on: male DIO rats; details: 5 and 10 mg/kg, q48 hr, s.c., 3-week treatment, male DIO rats (FIG. 23)
Procedure: Male Sprague Dawley rats (7 weeks old) were obtained from Charles River Laboratories (USA) and housed in a temperature and humidity controlled environment with a 12 h light:12 h dark cycle. The rats were given ad libitum access to a high fat chow diet (HFD; 60% of dietary kcal as fat, Research Diets D12492) and water throughout the study. Following 7 weeks on the HFD, rats were sorted by body weight and caged singly.
All data shown are the mean ± standard error (s.e.m.). Statistical evaluation of the data was carried out using one-way ANOVA, followed by Dunnett's test to determine where statistically significant differences existed between vehicle and drug treated groups. Differences were considered statistically significant at P<005. Data analysis was carried out with GraphPad software (GraphPad Prism).

[6] = tested on: female db/db mice; details: acute, 1 and 10 mg/kg, s.c., 28 hr prior to OGTT, female db/db mice (FIG. 24)
Procedure: Female db/db mice (C57BL/KsJ-Lep^db/db, Jackson Laboratories, USA) were at 6 weeks of age when received. The mice were housed in a temperature and humidity controlled environment with a 12 h light: 12 h dark cycle, and given access to food (Purina rodent chow 5008) and water ad libitum. The mice (12-weeks old) were pre-bled 4 days prior to study, and those within a narrow range of fasted blood glucose levels were selected for the study in order to minimize variability between vehicle control and drug-treated groups. […] Blood samples were collected from tail clips following a 6 hr fast for determination of baseline values (t=0 min). The mice were then gavaged with an oral bolus of glucose (1 g/kg), and additional blood samples were collected at regular intervals (t=30, 60 and 120 min) for glucose measurement. […] The area under the curve (AUC0-120 min) was determined using the trapezoid method.
All data shown are the mean ± standard deviation (s.d.). Statistical evaluation of the data was carried out using one-way ANOVA, followed by Dunnett's test to determine where statistically significant differences existed between vehicle and drug treated groups. […] Data analysis was carried out with GraphPad software (GraphPad Prism).

[7] = tested on: female db/db mice; details: q48 hr, s.c.
Procedure: Female db/db mice (C57BL/KsJ-Lep^db/db, Jackson Laboratories, USA) were at 6 weeks of age when received. The mice were housed in a temperature and humidity controlled environment with a 12 h light: 12 h dark cycle, and given access to food (Purina rodent chow 5008) and water ad libitum. The mice (9 week old) were pre-bled 4 days prior to drug treatment, and those within a narrow range of fasted blood glucose levels were selected for the study in order to minimize variability between vehicle control and drug-treated groups. […] Basal fasting (2 to 6 hr) blood glucose measurements were conducted weekly. On study day 20, an oral glucose tolerance test was performed following a 6 hr fast. Blood samples were collected from tail clips for determination of baseline values (t=0 min). The mice were then gavaged with an oral bolus of glucose (1 g/kg), and additional blood samples were collected at regular intervals (t=30, 60, and 120 min) for glucose measurement. […] The area under the curve (AUC0-120 min) was determined using the trapezoid method.
All data shown are the mean ± standard deviation (s.d.). Statistical evaluation of the data was carried out using one-way ANOVA, followed by Dunnett's test to determine where statistically significant differences existed between vehicle and drug treated groups. Differences were considered statistically significant at P<0.05. […]

Compound: N=C(N)NCCC[C@H](NC(=O)CC1(CC(=O)N2CCN(C3c4ccccc4NC(=O)c4ccccc43)CC2)CCCC1)C(=O)NCCn1c(=O)n(-c2ccccc2)n(-c2ccccc2)c1=O (stereo partly shown) [BIIE0246]
- NPY release [1]: increases NPY release

Compound: CC[C@H](C)[C@H](N)C(=O)N[C@@H](CCCCN)C(=O)N1CCN(c2ccc3ncn(CC(=O)N[C@@H](CCCNC(=N)N)C(=O)N[C@@H](Cc4c[nH]cn4)C(=O)N[C@@H](Cc4ccc(O)cc4)C(=O)N[C@@H](CC(C)C)C(=O)N[C@@H](CC(N)=O)C(=O)N[C@@H](Cc4c[nH]c5ccccc45)C(=O)N[C@H](C(=O)N[C@H](C(=O)N[C@@H](CCCNC(=N)N)C(=O)N[C@@H](CCC(N)=O)C(=O)N(C)[C@@H](CCCNC(=N)N)C(=O)N[C@@H](Cc4ccc(O)cc4)C(N)=O)[C@@H](C)O)C(C)C)c(=O)c3c2)CC1 [Example 25]
- pEC50 [2]: 6.53
- pEC50 [3]: < 5.30
- pEC50 [4]: < 5.30

Compound: CCCC[C@H](NC(=O)[C@@H](N)[C@@H](C)CC)C(=O)N1CCN(c2ccc3ncn(CC(=O)N[C@@H](CCCNC(=N)N)C(=O)N[C@@H](Cc4c[nH]cn4)C(=O)N[C@@H](Cc4ccc(O)cc4)C(=O)N[C@@H](CC(C)C)C(=O)N[C@@H](CC(N)=O)C(=O)N[C@@H](Cc4c[nH]c5ccccc45)C(=O)N[C@H](C(=O)N[C@H](C(=O)N[C@@H](CCCNC(=N)N)C(=O)N[C@@H](CCC(N)=O)C(=O)N(C)[C@@H](CCCNC(=N)N)C(=O)N[C@@H](Cc4ccc(O)cc4)C(N)=O)[C@@H](C)O)C(C)C)c(=O)c3c2)CC1 [Example 26]
- pEC50 [2]: < 5.30
- pEC50 [3]: < 5.30
- pEC50 [4]: < 5.30

Compound: CC[C@H](C)[C@H](NC(C)=O)C(=O)N[C@@H](CCCCN)C(=O)N1CCN(c2ccc3ncn(CC(=O)N[C@@H](CCCNC(=N)N)C(=O)N[C@@H](Cc4c[nH]cn4)C(=O)N[C@@H](Cc4ccc(O)cc4)C(=O)N[C@@H](CC(C)C)C(=O)N[C@@H](CC(N)=O)C(=O)N[C@@H](Cc4c[nH]c5ccccc45)C(=O)N[C@H](C(=O)N[C@H](C(=O)N[C@@H](CCCNC(=N)N)C(=O)N[C@@H](CCC(N)=O)C(=O)N(C)[C@@H](CCCNC(=N)N)C(=O)N[C@@H](Cc4c(F)cc(O)cc4F)C(N)=O)[C@@H](C)O)C(C)C)c(=O)c3c2)CC1 [Example 27]
- pEC50 [2]: < 5.30
- pEC50 [3]: < 5.30

Compound: CCCCC(=O)N[C@H](C(=O)N[C@@H](CCCCN)C(=O)N1CCN(c2ccc3ncn(CC(=O)N[C@@H](CCCNC(=N)N)C(=O)N[C@@H](Cc4c[nH]cn4)C(=O)N[C@@H](Cc4ccc(O)cc4)C(=O)N[C@@H](CC(C)C)C(=O)N[C@@H](CC(N)=O)C(=O)N[C@@H](Cc4c[nH]c5ccccc45)C(=O)N[C@H](C(=O)N[C@H](C(=O)N[C@@H](CCCNC(=N)N)C(=O)N[C@@H](CCC(N)=O)C(=O)N(C)[C@@H](CCCNC(=N)N)C(=O)N[C@@H](Cc4ccc(O)cc4)C(N)=O)[C@@H](C)O)C(C)C)c(=O)c3c2)CC1)[C@@H](C)CC [Example 29]
- pEC50 [2]: < 5.30
- pEC50 [3]: < 5.30
- pEC50 [4]: < 5.30

Compound: CC[C@H](C)[C@H](NC(=O)C(C)(C)C)C(=O)N[C@@H](CCCCN)C(=O)N1CCN(c2ccc3ncn(CC(=O)N[C@@H](CCCNC(=N)N)C(=O)N[C@@H](Cc4c[nH]cn4)C(=O)N[C@@H](Cc4ccc(O)cc4)C(=O)N[C@@H](CC(C)C)C(=O)N[C@@H](CC(N)=O)C(=O)N[C@@H](Cc4c[nH]c5ccccc45)C(=O)N[C@H](C(=O)N[C@H](C(=O)N[C@@H](CCCNC(=N)N)C(=O)N[C@@H](CCC(N)=O)C(=O)N(C)[C@@H](CCCNC(=N)N)C(=O)N[C@@H](Cc4ccc(O)cc4)C(N)=O)[C@@H](C)O)C(C)C)c(=O)c3c2)CC1 [Example 30]
- pEC50 [2]: < 5.30
- pEC50 [3]: < 5.30
- pEC50 [4]: < 5.30

Compound: CC[C@H](C)[C@H](NC(=O)CC1CCCCC1)C(=O)N[C@@H](CCCCN)C(=O)N1CCN(c2ccc3ncn(CC(=O)N[C@@H](CCCNC(=N)N)C(=O)N[C@@H](Cc4c[nH]cn4)C(=O)N[C@@H](Cc4ccc(O)cc4)C(=O)N[C@@H](CC(C)C)C(=O)N[C@@H](CC(N)=O)C(=O)N[C@@H](Cc4c[nH]c5ccccc45)C(=O)N[C@H](C(=O)N[C@H](C(=O)N[C@@H](CCCNC(=N)N)C(=O)N[C@@H](CCC(N)=O)C(=O)N(C)[C@@H](CCCNC(=N)N)C(=O)N[C@@H](Cc4ccc(O)cc4)C(N)=O)[C@@H](C)O)C(C)C)c(=O)c3c2)CC1 [Example 31]
- pEC50 [2]: < 5.30
- pEC50 [3]: < 5.30
- pEC50 [4]: < 5.30

Compound: CC[C@H](C)[C@H](NC(=O)c1ccccc1)C(=O)N[C@@H](CCCCN)C(=O)N1CCN(c2ccc3ncn(CC(=O)N[C@@H](CCCNC(=N)N)C(=O)N[C@@H](Cc4c[nH]cn4)C(=O)N[C@@H](Cc4ccc(O)cc4)C(=O)N[C@@H](CC(C)C)C(=O)N[C@@H](CC(N)=O)C(=O)N[C@@H](Cc4c[nH]c5ccccc45)C(=O)N[C@H](C(=O)N[C@H](C(=O)N[C@@H](CCCNC(=N)N)C(=O)N[C@@H](CCC(N)=O)C(=O)N(C)[C@@H](CCCNC(=N)N)C(=O)N[C@@H](Cc4ccc(O)cc4)C(N)=O)[C@@H](C)O)C(C)C)c(=O)c3c2)CC1 [Example 32]
- pEC50 [2]: < 5.30
- pEC50 [3]: < 5.30
- pEC50 [4]: < 5.30

Compound: Ile((PEG-30,000)CH2CH2NHCOCH2CH2CO)(ε)Lys-Pqa-Arg-His-Tyr-Leu-Asn-Trp-Val-Thr-Arg-Gln-(NMe)Arg-Tyr-NH2 [Example 41]
- body weight gain versus vehicle-treated animals [5]: significant decrease in body weight gain
- glucose excursion in response to an oral glucose challenge [6]: significantly decreased glucose excursion
- basal blood glucose levels versus vehicle-treated animals ([7]; 1, 3 and 10 mg/kg, day 8, 15 and 21, female db/db mice (FIG. 25A)): reduced basal blood glucose levels
- glucose excursion in response to an oral glucose challenge ([7]; day 20, 3 and 10 mg/kg, female db/db mice (FIG. 25B)): significantly decreased glucose excursion
